From paper PMC8175490, “Validation of mathematical model with phosphate activation effect by batch (R)-phenylacetylcarbinol biotransformation process utilizing Candida tropicalis pyruvate decarboxylase in phosphate buffer” (Scientific Reports, 2021)

Molecular target: T1, partially purified C. tropicalis TISTR 5350 pyruvate decarboxylase (PDC) (Candida tropicalis, UniProt C5MDS4)
T1 construct: gene CTRG_03826
Experiment: global fit of six-ODE model to batch PAC biotransformation progress curves (HPLC, enzymatic pyruvate assay)
Assay type: biochemical
Settings: carboligation with benzaldehyde (30/36 and 100/120 mM benzaldehyde/pyruvate); 250 mM phosphate pH 7.0, 4 °C, 1 mM TPP, 1 mM MgSO4; partially purified enzyme; model-fitted affinity constant; sigmoidal
Text: global fit of six-ODE model to batch PAC biotransformation progress curves (HPLC, enzymatic pyruvate assay) on partially purified C. tropicalis TISTR 5350 pyruvate decarboxylase (PDC)

T1 sequence (C5MDS4 entry or part of it): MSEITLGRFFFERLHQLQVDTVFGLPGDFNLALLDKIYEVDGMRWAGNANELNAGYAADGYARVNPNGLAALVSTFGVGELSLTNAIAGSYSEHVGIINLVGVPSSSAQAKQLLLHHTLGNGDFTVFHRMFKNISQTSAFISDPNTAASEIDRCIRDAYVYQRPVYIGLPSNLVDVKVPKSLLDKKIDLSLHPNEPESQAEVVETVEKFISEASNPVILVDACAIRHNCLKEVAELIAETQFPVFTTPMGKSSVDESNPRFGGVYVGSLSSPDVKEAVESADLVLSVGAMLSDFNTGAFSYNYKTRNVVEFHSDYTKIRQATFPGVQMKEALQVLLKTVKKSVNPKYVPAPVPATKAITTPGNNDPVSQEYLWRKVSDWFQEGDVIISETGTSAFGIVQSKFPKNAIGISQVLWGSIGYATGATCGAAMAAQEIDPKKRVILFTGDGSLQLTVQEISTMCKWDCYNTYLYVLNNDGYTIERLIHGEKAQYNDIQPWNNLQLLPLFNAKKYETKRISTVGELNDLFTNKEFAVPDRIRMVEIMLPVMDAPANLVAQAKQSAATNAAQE

O=Cc1ccccc1 [B, benzaldehyde]
Optimized values: (1.01 ± 0.02) × 10^–4 mM^1−h
